Measurements taken from US6703407B1, “Benzofuran compounds, compositions, and methods” (Eli Lilly and Company, priority 1994, dated 2004).

Experiments:
Assay type in all cases: in vivo, Sprague Dawley rats
[1] = system: Uterine Eosinophil Peroxidase (EPO); assay: Uterine Eosinophil Peroxidase (EPO) Assay; conditions: for Uterine EPO (V. max): OVX rats, oral daily for 4 days
Source text: (§1) Seventy-five day old female Sprague Dawley rats (weight range of 200 to 225 g) were obtained from Charles River Laboratories (Portage, Mich.). The animals were either bilaterally ovariectomized (OVX) or exposed to a Sham surgical procedure at Charles River Laboratories, and then shipped after one week. Upon arrival, they were housed in metal hanging cages in groups of 3 or 4 per cage and had ad libitum access to food (calcium content approximately 0.5%) and water for one week. Room temperature was maintained at 22.20±1.7° C. with a minimum relative humidity of 40%. The photoperiod in the room was 12 hours light and 12 hours dark.
(§2) Dosing Regimen Tissue Collection. After a one week acclimation period (therefore, two weeks post-OVX) daily dosing with test compound was initiated. 17α-ethynyl estradiol or the test compound were given orally, unless otherwise stated, as a suspension in 1% carboxymethylcellulose or dissolved in 20% cyclodextrin. Animals were dosed daily for 4 days. Following the dosing regimen, animals were weighed and anesthetized with a ketamine: Xylazine (2:1, V:V) mixture and a blood sample was collected by cardiac puncture. The animals were then sacrificed by asphyxiation with CO2, the uterus was removed through a midline incision, and a wet uterine weight was determined.
Uterine Eosinophil Peroxidase (EPO) Assay. Uteri were kept at 4° C. until time of enzymatic analysis. The uteri were then homogenized in 50 volumes of 50 mM Tris buffer (pH−8.0) containing 0.005% Triton X-100. Upon addition of 0.01% hydrogen peroxide and 10 mM o-phenylenediamine (final concentrations) in Tris buffer, increase in absorbance was monitored for one minute at 450 nm. The presence of eosonophils in the uterus is an indication of estrogenic activity of a compound. The maximal velocity of a 15 second interval was determined over the initial, linear portion of the reaction curve.

ovariectomized rats [2] = assay: Serum cholesterol in ovariectomized rat post-menopausal model (4-day dosing); conditions: oral daily for 4 days
Description: (§3) In the examples illustrating the methods, a post-menopausal model was used in which effects of different treatments upon circulating lipids were determined.
as §1, §2
Cholesterol Analysis. Blood samples were allowed to clot at room temperature for 2 hours, and serum was obtained following centrifugation for 10 minutes at 3000 rpm. Serum cholesterol was determined using a Boehringer Mannheim Diagnostics high performance cholesterol assay. Briefly the cholesterol was oxidized to cholest-4-en-3-one and hydrogen peroxide. The hydrogen peroxide was then reacted with phenol and 4-aminophenazone in the presence of peroxidase to produce a p-quinone imine dye, which was read spectrophotemetrically at 500 nm. Cholesterol concentration was then calculated against a standard curve. The entire assay was automated using a Biomek Automated Workstation.

ovariectomized rats [3] = assay: Uterine weight in ovariectomized rat post-menopausal model (4-day dosing); conditions: for Uterine Weight (% increase vs. OVX): OVX rats, oral daily for 4 days
Description: as §3, §1, §2

Structure (SMILES) | Uterine EPO (V. max) ([1]; dose 0.1 mg/kg) | eosinophil infiltration into the uterus (number of eosinophils in the stromal layer, in words) ([1]; ovariectomized rats) | Serum Cholesterol (% decrease vs. OVX) (ovariectomized rats [2]; dose 0.1 mg/kg) | Uterine Weight (% increase vs. OVX) (ovariectomized rats [3]; dose 0.1 mg/kg) | uterine weight vs. ovariectomized test animals (in words) (ovariectomized rats [3]; orally administered at 0.1 mg/Kg/day) | Uterine EPO (V. max) ([1]; dose 1.0 mg/kg) | Uterine EPO (V. max) ([1]; dose 10.0 mg/kg) | Serum Cholesterol (% decrease vs. OVX) (ovariectomized rats [2]; dose 1.0 mg/kg) | Serum Cholesterol (% decrease vs. OVX) (ovariectomized rats [2]; dose 10.0 mg/kg) | Uterine Weight (% increase vs. OVX) (ovariectomized rats [3]; dose 1.0 mg/kg) | Uterine Weight (% increase vs. OVX) (ovariectomized rats [3]; dose 10.0 mg/kg)
C#C[C@]1(O)CC[C@H]2[C@@H]3CCc4cc(O)ccc4[C@H]3CC[C@@]21C [EE2, 17α-ethynyl estradiol, reference compound] | 201.9 | substantial, expected increase in eosinophil infiltration | 92.6 | 172.8 | substantially greater than the uterine weight of ovariectomized test animals | – | – | – | – | – | –
Cl.Oc1ccc(-c2oc3cc(O)ccc3c2Cc2ccc(OCCN3CCCCC3)cc2)cc1 [Ex-3, [2-(4-Hydroxyphenyl)-6-hydroxybenzofuran-3-yl][4-[2-(1-piperidinyl)ethoxy]phenyl]methane Hydrochloride] | 4.7 | – | 38.9 | 8.6 | – | 5.8 | 11.3 | 53.0 | 73.3 | 26.3 | 30.1
